# Results reported in US20240336657A1, “G-ALPHA-S PEPTIDE INHIBITORS AND USES THEREOF” (The Regents of the University of California, priority 2021, published 2024).
# Positions of bridges follow the written chain, without caps; N, C: chain ends. Non-standard residues stand in square brackets, D forms with d. Residues, ends and D or L forms follow the SMILES beside them. *: point of attachment. NH(CH2CH2O)2(CH2)6Cl = ClCCCCCCOCCOCCN*
# B1: GN10 (peptide)
# peptide: Ac-[dY]HEQFDNFCDLWCG-NH2
# modifications: thioether (positions not given here); also: thioether partner Cys9 or Cys13 not settled
# B2: GD20 (peptide)
# peptide: {CH2CO}-[dY]LITFRQWAFNLPCG-NH2
# modifications: thioether N-14
# SMILES: CC[C@H](C)[C@@H]1NC(=O)[C@H](CC(C)C)NC(=O)[C@@H](Cc2ccc(O)cc2)NC(=O)CSC[C@@H](C(=O)NCC(N)=O)NC(=O)[C@@H]2CCCN2C(=O)[C@H](CC(C)C)NC(=O)[C@H](CC(N)=O)NC(=O)[C@H](Cc2ccccc2)NC(=O)[C@H](C)NC(=O)[C@H](Cc2c[nH]c3ccccc23)NC(=O)[C@H](CCC(N)=O)NC(=O)[C@H](CCCNC(=N)N)NC(=O)[C@H](Cc2ccccc2)NC(=O)[C@H]([C@@H](C)O)NC1=O
# notes: also called cyclic peptide GD20
# Assays:
# GDP-bound Gαs = molecular target: T1, GDP-bound Gαs (Homo sapiens, UniProt P63092); experiment: Bio-layer interferometry (BLI) binding kinetics; settings: GDP/Gαs
# T1 construct: hexahistidine (N, cleaved yes); made in house; host or cells: Escherichia coli BL21(DE3)
# Experimental: (§1) BLI experiments were performed using an OctetRED384 instrument from ForteBio. All experiments were performed at 25° C. using BLI buffer (10 mM HEPES pH 7.4, 150 mM NaCl, 1 mM MgCl2, 0.05% Tween-20, 0.1% DMSO, 0.2 mM GppNHp or GDP). Cyclic peptides were diluted to a series of concentrations in BLI buffer plus 10 μM Biotin. Assays were conducted in Greiner 384well, black, flat bottom polypropylene plates containing the protein solutions, BLI buffer plus 10 μM Biotin for dissociation, and serial dilutions of cyclic peptides to be tested.
# (§2) Biotinylated proteins were immobilized on Streptavidin biosensors by dipping sensors into plate wells containing protein solutions at a concentration of 100-150 nM. Protein loading is around 2-3 nm. Sensors loaded with proteins were moved and dipped into wells with BLI buffer plus 10 μM Biotin to block unlabeled Streptavidin. Association-dissociation cycles of compounds were started by moving and dipping sensors to cyclic peptides dilutions and BLI buffer plus 10 μM Biotin wells alternatively. Association and dissociation times were carefully determined to ensure full association and dissociation.
# (§3) Raw kinetic data collected were processed with the Data Analysis software provided by the manufacturer using single reference subtraction in which buffer-only reference was subtracted (For GN13 analysis). Because GD20 analogs have a low level of background binding, we used a double reference subtraction (buffer-only reference and non-protein-loading reference) method to calculate their kinetics values. The resulting data were analyzed based on a 1:1 binding model from which kon and koff values were obtained and then Kd values were calculated.
# GDP-bound Gαi1 = molecular target: T2, GDP-bound Gαi1 (Homo sapiens, UniProt P63096); experiment: Bio-layer interferometry (BLI) binding; settings: highest concentration tested
# T2 construct: hexahistidine (N, cleaved yes); made in house; host or cells: Escherichia coli BL21(DE3)
# T2 sequence (P63096 with tags, fused parts or gaps): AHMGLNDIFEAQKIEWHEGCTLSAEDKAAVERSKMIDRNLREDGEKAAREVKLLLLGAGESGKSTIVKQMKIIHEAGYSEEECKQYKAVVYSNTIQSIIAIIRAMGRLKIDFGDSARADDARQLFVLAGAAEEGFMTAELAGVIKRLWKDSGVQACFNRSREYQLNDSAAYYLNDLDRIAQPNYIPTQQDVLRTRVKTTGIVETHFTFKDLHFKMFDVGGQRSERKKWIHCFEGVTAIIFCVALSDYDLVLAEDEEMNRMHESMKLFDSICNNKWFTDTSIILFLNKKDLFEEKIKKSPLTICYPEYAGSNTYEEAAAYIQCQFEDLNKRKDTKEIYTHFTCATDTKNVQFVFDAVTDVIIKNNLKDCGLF
# Experimental: as §1, §2, §3
# GppNHp-bound Gαi1 = molecular target: T3, GppNHp-bound Gαi1 (Homo sapiens, UniProt P63096); experiment: Bio-layer interferometry (BLI) binding; settings: highest concentration tested
# T3 construct: hexahistidine (N, cleaved yes); made in house; host or cells: Escherichia coli BL21(DE3)
# T3 sequence (P63096 with tags, fused parts or gaps): as above
# Experimental: as §1, §2, §3
# Gαi = Gαi (Homo sapiens, UniProt P63096); experiment: Nucleotide exchange step (GDP dissociation / GTPγS binding); type: biochemical; settings: compared with Gαs
# Chain of Gαi (P63096 whole entry): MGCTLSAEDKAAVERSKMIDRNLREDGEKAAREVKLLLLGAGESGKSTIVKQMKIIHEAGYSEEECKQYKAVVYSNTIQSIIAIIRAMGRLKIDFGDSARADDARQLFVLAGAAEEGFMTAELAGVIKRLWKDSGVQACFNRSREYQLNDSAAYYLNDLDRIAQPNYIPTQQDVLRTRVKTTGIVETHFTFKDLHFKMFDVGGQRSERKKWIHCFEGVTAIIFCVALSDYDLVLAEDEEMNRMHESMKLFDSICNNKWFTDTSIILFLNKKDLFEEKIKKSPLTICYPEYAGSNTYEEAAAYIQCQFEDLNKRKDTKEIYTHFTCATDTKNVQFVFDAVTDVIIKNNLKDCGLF
# Experimental: (§4) Gα proteins were diluted to 400 nM in the EDTA buffer (20 mM HEPES 7.5, 150 mM NaCl, 1 mM EDTA-Na 8.0, 2 mM DTT). [^3H]GDP (1 mCi/mL, 25.2 μM) was added to a final concentration of 1.2 μM, followed by cyclic peptides addition. After incubation at 20° C. for 30 minutes, the same volume of assay buffer ([…] HEPES-Na 7.5, 150 mM NaCl, 2 mM MgCl2, and 1 mM GDP) was added to initiate [^3H]GDP dissociation. At various points, […] was removed and mixed with 390 μL of ice-cold wash buffer (20 mM HEPES 7.5, 150 mM NaCl, 20 mM MgCl2). The mixture was immediately filtered through a mixed cellulose membrane (25 mm, 0.22 μm) held by a microanalysis filter holder (EMD Millipore). The membrane was washed by ice-cold wash buffer (500 μL×3), put in a 6-mL plastic vial and air-dried (room temperature 1.5 h). 5 mL of CytoScint-ES Liquid Scintillation Cocktail was added to each vial. After incubation overnight at room temperature, the vial was used for liquid scintillation counting with a LS 6500 Multi-Purpose Scintillation Counter.
# Gα proteins were diluted to 10 μM with dilution buffer (20 mM HEPES 7.5, 150 mM NaCl, 1 mM MgCl2, 2 mM DTT, and 20 μM GDP) and incubated with 5× stocks of cyclic peptides at room temperature for 2 hours. GTPγS binding was initiated by mixing with the reaction buffer at room temperature (50 nM [35S]GTPγS and 100 μM GTPγS in dilution buffer) at room temperature. […]
# Gαs [1] = molecular target: T4, Gαs (Homo sapiens, UniProt P63092); experiment: GDP dissociation assay ([3H]GDP); type: biochemical; design: made in house; host or cells: Escherichia coli BL21(DE3)
# T4 sequence (P63092 1-380 isoform P63092-2): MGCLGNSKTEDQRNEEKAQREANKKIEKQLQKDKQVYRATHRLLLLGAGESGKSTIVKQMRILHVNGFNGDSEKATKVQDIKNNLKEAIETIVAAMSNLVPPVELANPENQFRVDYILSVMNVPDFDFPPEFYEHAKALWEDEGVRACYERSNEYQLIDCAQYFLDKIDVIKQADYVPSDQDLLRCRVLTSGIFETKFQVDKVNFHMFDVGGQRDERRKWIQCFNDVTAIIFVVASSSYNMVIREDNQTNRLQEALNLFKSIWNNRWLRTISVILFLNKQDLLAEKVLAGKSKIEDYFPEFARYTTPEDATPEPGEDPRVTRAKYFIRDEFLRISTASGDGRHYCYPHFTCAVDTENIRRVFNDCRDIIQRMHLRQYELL
# Experimental: as §4
# The GDP dissociation curves were fitted by the software GraphPad Prism using the following equation to calculate the dissociation rates (koff): […]
# in which “Y” is the radioactivity (Counts per minute) of the sample at time “X” (minutes), and Y0 is the calculated radioactivity of the sample at the time point 0.
# Gαs [2] = molecular target: T4, Gαs; experiment: GTPγS binding assay ([35S]GTPγS); type: biochemical; design: made in house; host or cells: Escherichia coli BL21(DE3)
# Experimental: Gα proteins were diluted to 10 μM with dilution buffer (20 mM HEPES 7.5, 150 mM NaCl, 1 mM MgCl2, 2 mM DTT, and 20 μM GDP) and incubated with 5× stocks of cyclic peptides at room temperature for 2 hours. GTPγS binding was initiated by mixing with the reaction buffer at room temperature (50 nM [35S]GTPγS and 100 μM GTPγS in dilution buffer) at room temperature. At various time points, 10 μL of the sample was removed and mixed with 390 μL of ice-cold wash buffer (20 mM HEPES 7.5, 150 mM NaCl, 20 mM MgCl2). The mixture was filtered through a mixed cellulose membrane (25 mm, 0.22 μm). The membrane was washed by ice-cold wash buffer (500 μL×3), put in a 6-mL plastic vial and air-dried (room temperature 1.5 h). 5 mL of CytoScint-ES Liquid Scintillation Cocktail (MP Biomedicals) was added to each vial. After incubation overnight at room temperature, the vial was used for liquid scintillation counting with a LS 6500 Multi-Purpose Scintillation Counter. A standard curve was generated using [35S]GTPγS. The radioactive activity (Counts per minute) of the samples were converted to the GTPγS concentration. The GTPγS binding curves were fitted by the software GraphPad Prism using the following equation to calculate the apparent GTPγS binding rates (kapp): […]
# in which “Y” is the concentration of GTPγS that bound to Gα protein at time “X” (minutes).
# GppNHp-bound Gαs = GppNHp-bound Gαs (Homo sapiens, UniProt P63092); experiment: Bio-layer interferometry (BLI) binding kinetics; design: hexahistidine (N, cleaved yes); made in house; host or cells: Escherichia coli BL21(DE3); settings: highest concentration tested
# Chain of GppNHp-bound Gαs (P63092 with tags, fused parts or gaps isoform P63092-2): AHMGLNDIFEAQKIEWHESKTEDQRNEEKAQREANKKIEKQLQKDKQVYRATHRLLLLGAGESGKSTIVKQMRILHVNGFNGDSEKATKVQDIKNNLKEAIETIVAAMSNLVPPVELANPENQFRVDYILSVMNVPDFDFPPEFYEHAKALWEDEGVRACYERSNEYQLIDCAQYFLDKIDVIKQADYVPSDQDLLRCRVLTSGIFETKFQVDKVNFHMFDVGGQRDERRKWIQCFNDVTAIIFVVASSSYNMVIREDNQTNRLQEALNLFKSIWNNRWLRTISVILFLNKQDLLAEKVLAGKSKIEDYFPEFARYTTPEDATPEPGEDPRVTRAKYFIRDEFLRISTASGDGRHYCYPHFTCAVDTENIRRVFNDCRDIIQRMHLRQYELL
# Experimental: as §1, §2, §3
# [3] = tested on: HeLa cells stably expressing HaloTag; experiment: Chloroalkane penetration assay (CAPA); type: in vitro ADME, human
# Excerpt: We first tested the cell permeability of GD20, as peptide-based chemical probes often suffer from poor cell permeability. […] In order to quantitatively evaluate the cell permeability of GD20, we used a recently developed HaloTag-based assay known as a chloroalkane penetration assay (CAPA) (Figure S6I) (Peraro et al., 2018). HeLa cells stably expressing HaloTag localized to the mitochondrial outer membrane were pulsed with chloroalkane-tagged molecules (ct-molecule), washed, chased with chloroalkane-tagged TAMRA fluorophore (ct-TAMRA), and finally analyzed by flow cytometry. A lower ct-TAMRA fluorescent signal indicates competition from a higher cytosolic concentration of ct-molecule. The carboxyl terminus of GD20 (G15) was conjugated with a chloroalkane tag to make ct-GD20 (FIG. 23A).
# The cell lines used for CAPA were HeLa cell lines, generated by Chenoweth and co-workers, that stably express HaloTag exclusively in the cytosol (Peraro et al., 2018). Cells were seeded in a 96-well plate the day before the experiment at a density of 4×10^4 cells per well. The day of the experiment the media was aspirated, and 100 μL of cyclic peptide dilutions in DMEM were added to the cells. Plate was incubated for 19.5 h at 37° C. with 5% CO2. […] The cells were then trypsinized, quenched with DMEM, resuspended in PBS, and analyzed using a benchtop flow cytometer (CytoFLEX, Beckman).
# [4] = molecular target: T5, Biotinylated His/Avi-tagged Gαs used in the RaPID selection, GppNHp-bound (human, UniProt P63092 7-394, biotin on the Avi tag (BirA co-expressed)); experiment: RaPID comparison selection: peptide-mRNA-cDNA complexes on Gαs-immobilized streptavidin beads, qPCR and sequencing
# T5 construct: Immobilized on streptavidin magnetic beads
# T5 sequence (P63092 other isoform, or with tags, fused parts or gaps limits assumed): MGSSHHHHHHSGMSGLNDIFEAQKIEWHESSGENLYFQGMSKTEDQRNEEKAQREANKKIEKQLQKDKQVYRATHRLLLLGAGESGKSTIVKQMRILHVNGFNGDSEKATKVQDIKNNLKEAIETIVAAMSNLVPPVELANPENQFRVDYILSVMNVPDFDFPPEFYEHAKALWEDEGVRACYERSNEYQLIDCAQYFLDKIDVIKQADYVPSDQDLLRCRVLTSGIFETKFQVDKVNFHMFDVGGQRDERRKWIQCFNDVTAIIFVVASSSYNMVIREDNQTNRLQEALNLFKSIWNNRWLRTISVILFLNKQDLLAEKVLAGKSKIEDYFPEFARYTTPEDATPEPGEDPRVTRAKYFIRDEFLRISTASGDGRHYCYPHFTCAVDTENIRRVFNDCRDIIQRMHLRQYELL
# [5] = molecular target: Biotinylated Avi-tagged WT Gαs (residues 7-380 of the short isoform of human Gαs), GppNHp-bound (human) (UniProt P63092); experiment: TR-FRET competition: biotinylated Gαs WT (GppNHp-bound) with His-tagged adenylyl cyclase (VC1/IIC2) as the blocked partner; peptide concentration varied
# Chain of Biotinylated Avi-tagged WT Gαs (residues 7-380 of the short isoform of human Gαs), GppNHp-bound (human) (P63092 other isoform, or with tags, fused parts or gaps limits assumed): as the sequence (P63092 with tags, fused parts or gaps isoform P63092-2) above
# [6] = molecular target: WT Gαs (purified, steady-state GTPase, GDP dissociation and GTPγS binding assays) (UniProt P63092-2 7-380); experiment: cell-based or functional assay
# Chain of WT Gαs (purified, steady-state GTPase, GDP dissociation and GTPγS binding assays) (P63092 other isoform, or with tags, fused parts or gaps limits assumed): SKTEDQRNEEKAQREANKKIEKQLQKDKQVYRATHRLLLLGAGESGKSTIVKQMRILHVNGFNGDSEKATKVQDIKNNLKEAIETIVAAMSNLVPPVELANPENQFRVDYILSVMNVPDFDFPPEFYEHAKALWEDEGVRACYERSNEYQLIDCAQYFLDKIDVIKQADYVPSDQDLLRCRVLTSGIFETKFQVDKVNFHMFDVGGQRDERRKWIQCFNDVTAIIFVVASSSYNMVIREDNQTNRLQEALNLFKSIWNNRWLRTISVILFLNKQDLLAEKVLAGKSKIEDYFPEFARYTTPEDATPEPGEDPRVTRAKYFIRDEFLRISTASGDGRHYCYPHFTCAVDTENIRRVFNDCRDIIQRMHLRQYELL
# [7] = molecular target: T6, Biotinylated Avi-tagged WT Gαs (residues 7-380 of the short isoform of human Gαs), GDP-bound (human, UniProt P63092 7-394, biotin on the Avi tag (BirA)); experiment: TR-FRET competition: biotinylated GDP-bound Gαs WT against His-Gβγ(C68S)
# T6 construct: Loaded with GDP; Same polypeptide as m7, other nucleotide state; also called biotinylated Gαs WT
# T6 sequence (P63092 other isoform, or with tags, fused parts or gaps limits assumed): as the sequence (P63092 with tags, fused parts or gaps isoform P63092-2) above
# Experimental: (§5) Biotinylated avi-Gαs (6-end, WT) and avi-Gαi (FL, WT) were diluted to 32 nM (8×) using assay buffer (1× PBS 7.4, 2 mM DTT, 0.1% BSA, 2 mM MgCl₂, 0.05% Tween plus 0.5 mM GDP), followed by mixing with a same volume of 8× streptavidin XL665 stock (32 nM in the assay buffer). 8× His-Gβ/γ (C68S) stock (16 nM) and 8× anti-6His-Tb cryptate stock (0.4 μg/mL) were added into the Gα/XL665 mixtures. Finally, 2× stocks of cyclic peptides were added with the protein mixtures. After incubation at room temperature for 2 hour at room temperature. […] FRET Signal was calculated as the ratio of [Read B]/[Read A].
# [8] = molecular target: T6, Biotinylated Avi-tagged WT Gαs …; experiment: TR-FRET competition: biotinylated Gαs or Gαi (GDP) against His-Gβγ(C68S)
# Experimental: as §5
molecule,measurement,setting,value
CC[C@H](C)[C@@H]1NC(=O)[C@H](CC(C)C)NC(=O)[C@@H](Cc2ccc(O)cc2)NC(=O)CSC[C@@H](C(=O)NCC(N)=O)NC(=O)[C@@H]2CCCN2C(=O)[C@H](CC(C)C)NC(=O)[C@H](CC(N)=O)NC(=O)[C@H](Cc2ccccc2)NC(=O)[C@H](C)NC(=O)[C@H](Cc2c[nH]c3ccccc23)NC(=O)[C@H](CCC(N)=O)NC(=O)[C@H](CCCNC(=N)N)NC(=O)[C@H](Cc2ccccc2)NC(=O)[C@H]([C@@H](C)O)NC1=O [GD20] ({CH2CO}-[dY]LITFRQWAFNLPCG-NH2; thioether N-14),Kd,GDP-bound Gαs,31.4 ± 0.7 nM
same,koff,GDP-bound Gαs,0.00343 s⁻¹
same,kon,GDP-bound Gαs,109000 M⁻¹ s⁻¹
same,binding to GDP-bound Gαi1,GDP-bound Gαi1,no detectable binding
same,binding to GppNHp-bound Gαi1,GppNHp-bound Gαi1,no detectable binding
same,sensitivity of the nucleotide exchange step of Gαi,Gαi,much less sensitive
same,effect on Gαs GDP dissociation rates (koff),Gαs [1],drastically reducing
same,effect on the apparent rate of GTPγS binding (kapp) to Gαs,Gαs [2],drastically reducing
same,binding to GppNHp-bound Gαs,GppNHp-bound Gαs,no detectable binding
CC[C@H](C)[C@@H]1NC(=O)[C@H](CC(C)C)NC(=O)[C@@H](Cc2ccc(O)cc2)NC(=O)CSC[C@@H](C(=O)NCC(=O)NCCOCCOCCCCCCCl)NC(=O)[C@@H]2CCCN2C(=O)[C@H](CC(C)C)NC(=O)[C@H](CC(N)=O)NC(=O)[C@H](Cc2ccccc2)NC(=O)[C@H](C)NC(=O)[C@H](Cc2c[nH]c3ccccc23)NC(=O)[C@H](CCC(N)=O)NC(=O)[C@H](CCCNC(=N)N)NC(=O)[C@H](Cc2ccccc2)NC(=O)[C@H]([C@@H](C)O)NC1=O [ct-GD20] ({CH2CO}-[dY]LITFRQWAFNLPCG-{NH(CH2CH2O)2(CH2)6Cl}; thioether N-14),cell permeability (CAPA),[3],cell permeable
B1,fold selectivity for GppNHp-bound over GDP-bound Gαs,[4],> 100 fold
same,IC50 (read off the curve),[5],200 nM
B2,"IC50, inhibition of Gαs steady-state GTPase activity",[6],1150 nM
same,IC50,[7],18.4 nM
same,fold selectivity for Gαs over Gαi,[8],≥ 100 fold
